Data published in patent US12263248B2, “Compounds and compositions for intracellular delivery of therapeutic agents” (ModernaTX, Inc., priority 2018, dated 2025).
Marks after values point to notes of the source that are not given here.

Legend:
[1] = Particle size and polydispersity index of nanoparticle compositions (Zetasizer Nano ZS); assay type: physicochemical
Procedure, shortened: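 Nanoparticle compositions are diluted in 1×PBS, then size and polydispersity index are read on a Zetasizer Nano ZS instrument.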

hEPO mRNA = experiment: hEPO expression after intramuscular administration to mice; assay type: in vivo; conditions: for Fold increase in hEPO concentration relative to MC3: mice, 0.01 mpk, 6 hr time point; for Lipid/MC3 6 h timepoint / Lipid/MC3 AUC: Table 3I, hEPO; for Novel lipid/MC3 expression ratio, 6 hr. time point, i.m. hEPO: relative to MC3 formulation; for Novel lipid/MC3 ratio, 6 hr. timepoint, i.m. hEPO: relative to MC3, Table 3G
Experimental: The expression of hEPO and cytokine induction in mice intravenously administered a nanoparticle composition at a dose of 0.5 mpk were measured at 3, 6, and 24 hours. […] The expression of hEPO in mice intramuscularly administered a nanoparticle composition from Table 1B at a dose of 0.01 mpk were measured at 3, 6, and 24 hours.
Blood collection and analysis for hEPO. Blood was collected from mice or rats via the tail vein and hEPO concentrations were determined using a hEPO ELISA assay.

luciferase (Luc) mRNA = experiment: Luc expression in liver, lung, spleen and femur 6 hours after intravenous administration; assay type: in vivo; conditions: mice, 0.5 mpk
Procedure, shortened: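 LNP-formulated mRNA given IV to mice (n=3) at 0.5 mpk; at 6 h, bioluminescence imaged ex vivo 15 min after IP D-luciferin (15 mg/mL, 200 μL), organs imaged within 25 min. Values are total flux by region of interest.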

IL-6, IP-10 = experiment: Cytokine induction in mice upon intravenous administration; assay type: in vivo; set-up: Cytokine induction IL-6 / Cytokine induction IP-10: unit not given here; conditions: 0.5 mpk, 6 hours
Procedure, shortened: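 Mice dosed intravenously with nanoparticle compositions at 0.5 mpk; serum cytokine concentrations (IL-6, IP-10) measured at 6 hours. MC3 formulation and PBS controls run alongside.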

[2] = Residual lipid levels in rat liver and spleen (UPLC-MS); assay type: in vivo; conditions: for % Lipid Remaining in liver, 48 h: 2 mpk, assuming 300 g rat and 15 g liver
Procedure, shortened: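 Rats received a single intravenous dose of lipid nanoparticle composition, and liver tissue was later collected to quantify residual lipid. Weighed tissue was homogenized in Milli-Q water (900 μL per 100 mg tissue) using an Omni probe homogenizer. 50 μL aliquots were mixed with 400 μL spiking solution, vortexed, centrifuged, and analyzed by UPLC on a C8 column with positive-mode ESI detection on a Sciex API5500 mass spectrometer.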

luciferase mRNA = experiment: Luciferase expression after subcutaneous administration to mice; assay type: in vivo, female CD-1 mice; conditions: for Novel lipid/MC3 expression ratio, 6 hr. time point, s.c. Luc 0.5 mpk / Novel lipid/MC3 expression ratio, s.c. Luc 0.5 mpk (AUC) / Lipid/MC3 AUC ratio / AUC (luciferase expression): 0.5 mpk; for Lipid/MC3 AUC ratio: luciferase; for AUC (luciferase expression): whole body BLI; for Novel lipid/MC3 ratio, s.c. Luc 6 hr.: relative to MC3, Table 3G
Procedure, shortened: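 Female CD-1 mice given luciferase mRNA in lipid nanoparticle formulations subcutaneously at 0.5 mpk. Expression read by whole-body bioluminescence imaging at 3, 6 and 24 h, with ex vivo liver, spleen and injection-site luminescence at 24 h.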

[3] = Table 1A, lipid:DSPC:cholesterol:PEG-DMG 50:10:38.5:1.5 mol %
[4] = Table 1B, formulated with hEPO mRNA
[5] = Table 1D, for subcutaneous administration, # formulated with hEPO mRNA
[6] = nanoparticle composition with hEPO mRNA (Table 30)
[7] = nanoparticle composition with mRNA encoding anti-HA antibody (Table 33)
[8] = nanoparticle of rat tolerability study (Table 43)
[9] = Table 1E, compositions for subcutaneous administration
[10] = Table 1C, compositions for subcutaneous administration

Compound | PDI ([1]; Table 1A) | Size (nm) [1, 3] [nm] | PDI [1, 4] | Size (nm) [1, 4] [nm] | PDI [1, 5] | Size (nm) [1, 5] [nm] | PDI [1, 9] | Size (nm) [1, 9] [nm] | PDI [1, 10] | Size (nm) [1, 10] [nm] | Fold increase in hEPO concentration relative to MC3 (hEPO mRNA) | Total Flux Liver (luciferase (Luc) mRNA; intravenous) | Total Flux Lung (luciferase (Luc) mRNA; intravenous) | Total Flux Spleen (luciferase (Luc) mRNA; intravenous) | % Lipid Remaining in liver, 48 h ([2]; rats, 48 h) [%] | Novel lipid/MC3 expression ratio, 6 hr. time point, i.m. hEPO (hEPO mRNA) | Novel lipid/MC3 expression ratio, 6 hr. time point, s.c. Luc 0.5 mpk (luciferase mRNA; relative to MC3) | Novel lipid/MC3 ratio, 6 hr. timepoint, i.m. hEPO (hEPO mRNA) | Novel lipid/MC3 expression ratio, s.c. Luc 0.5 mpk (AUC) (luciferase mRNA; relative to MC3) | Lipid/MC3 AUC ratio (luciferase mRNA) | other results
CCCCCCCCCOC(=O)CCCCCCCN(CCO)CCCCCCCC(=O)OC(CCCCCCCC)CCCCCCCC [Compound 18, Heptadecan-9-yl 8-((2-hydroxyethyl)(8-(nonyloxy)-8-oxooctyl)amino)octanoate] | 018 | 87.9 | 0.14 | 73.7 | 0.11 | 75.0 |  |  |  |  | 8.6 | 2.76E+09 | 1.25E+07 | 5.15E+07 | 0.018 |  |  |  |  |  | PDI (Polydispersity index) ([1]; lipid nanoparticle, ±SD within one assay run (Table 37)): 0.04 ± 0.06; PDI ([1]; lipid:DSPC:Chol:PEG-DMG (50:10:38.5:1.5), hEPO mRNA): 0.095; PDI [1, 6]: 0.230; Diameter [1, 7]: 76.8 nm; PDI [1, 7]: 0.16; Diameter [1, 8]: 80 nm; PDI [1, 8]: 0.19; Total Flux Femur (luciferase (Luc) mRNA; intravenous, femur): 4.68E+06; IP-10 induction (IL-6, IP-10; i.v., in words): lowest; Cytokine induction IL-6 (IL-6, IP-10; intravenous): 78.76; Cytokine induction IP-10 (IL-6, IP-10; intravenous): 139.92; % dose remaining Rat liver tissue, 48 h ([2]; Sprague Dawley rat liver 48 h after 2 mg/kg bolus dose mRNA): 0.02^e %; % lipid remaining in liver after 48 hours [2]: 0.018%; % remaining dose in liver, 48 h ([2]; rats, intravenous, 2.0 mpk, 48 h): <1%; Novel lipid/MC3 expression ratio, 6 hr. time point, s.c. Luc 0.05 mpk (luciferase mRNA; 0.05 mpk, relative to MC3): 2.63
CCCCCCCCC(C)OC(=O)CCCCCCCN(CCO)CCCCCCCC(=O)OC(CCCCCCCC)CCCCCCCC (stereo not shown) [Compound 48, decan-2-yl 8-((8-(heptadecan-9-yloxy)-8-oxooctyl)(2-hydroxyethyl)amino)octanoate] | 0.092 | 82.3 |  |  | 0.09 | 79.8 |  |  |  |  |  | 1.08E+10 | 3.31E+07 | 3.49E+08 | 7.22 |  |  |  |  |  | PDI [1, 6]: 0.176; Size ([1]; nanoparticle composition with hEPO mRNA, standard MC3 formulation (Table 30)): 70.6 nm; Lipid/MC3 6 h timepoint (hEPO mRNA): 8.2; Lipid/MC3 AUC (hEPO mRNA): 7.5; Flux in the liver (luciferase (Luc) mRNA; i.v., in words): highest; Flux in the spleen (luciferase (Luc) mRNA; i.v., in words): highest; % lipid remaining in liver after 48 hours [2]: 11.4%
CCCCCCCCC(CC)OC(=O)CCCCCCCN(CCO)CCCCCCCC(=O)OC(CCCCCCCC)CCCCCCCC (stereo not shown) [Compound 49, heptadecan-9-yl 8-((2-hydroxyethyl)(8-oxo-8-(undecan-3-yloxy)octyl)amino)octanoate] | 0.14 | 88 |  |  | 0.09 | 74.0 |  |  |  |  |  | 5.68E+09 | 2.52E+07 | 1.87E+08 | 12.6 |  |  |  |  |  | Lipid/MC3 6 h timepoint (hEPO mRNA): 11.0; Lipid/MC3 AUC (hEPO mRNA): 9.9
CCCC/C=C\CCC(CC/C=C\CCCC)OC(=O)CCCCCCCN(CCO)CCCCCCCC(=O)OCCCCCCCCC [Compound 60, (5Z,12Z)-Heptadeca-5,12-dien-9-yl 8-((2-hydroxyethyl)(8-(nonyloxy)-8-oxooctyl)amino)octanoate] | 0.12 | 95.1 | 0.15 | 88.9 | 0.13 | 87.4 | 0.12 | 93.3 |  |  | 11.2 | 1.54E+09 | 6.25E+06 | 7.12E+06 |  | 11.2 | 1.72 |  |  |  | 
CCCCCCCCCOC(=O)CCCCCCCN(CCCCCCCC(=O)OC(CCCCCCCC)CCCCCCCC)CCCNS(C)(=O)=O [Compound 109, Heptadecan-9-yl 8-((3-(methylsulfonamido)propyl)(8-(nonyloxy)-8-oxooctyl)amino)octanoate] | 0.13 | 81.1 | 0.099 | 75 |  |  | 0.10 | 67.0 |  |  | 5.3 | 8.17E+08 | 6.03E+06 | 4.81E+07 |  |  | 0.49 |  |  |  | 
CCCCCCCCCOC(=O)CCCCCCCN(CCCCCCCC(=O)OC(CCCCCCCC)CCCCCCCC)CCCNC(=O)NC [Compound 112, Heptadecan-9-yl 8-((3-(3-methylureido)propyl)(8-(nonyloxy)-8-oxooctyl)amino)octanoate] | 0.22 | 83.7 | 0.21 | 60.6 |  |  |  |  | 0.22 | 83.7 | 1.6 | 1.48E+08 | 1.83E+06 | 2.75E+07 |  |  |  | 1.6 | (AUC: 1.19) | 1.19 | AUC (luciferase expression) (luciferase mRNA): 2.0339E+10 (p/s) * h; Novel lipid/MC3 ratio, s.c. Luc 6 hr. (luciferase mRNA): 1.33
CCCCCCCCC(C)OC(=O)CCCCCN(CCO)CCCCCCCC(=O)OC(CCCCCCCC)CCCCCCCC (stereo not shown) [Compound 122, Heptadecan-9-yl 8-((6-(decan-2-yloxy)-6-oxohexyl)(2-hydroxyethyl)amino)octanoate] | 0.09 | 69.3 | 0.12 | 70.2 |  |  |  |  | 0.16 | 80.2 | 10.7 | 2.63E+09 | 2.77E+07 | 1.56E+07 |  | 10.7 |  | 10.7 | (AUC: 3.42) | 3.42 | AUC (luciferase expression) (luciferase mRNA): 5.8576E+10 (p/s) * h; Novel lipid/MC3 ratio, s.c. Luc 6 hr. (luciferase mRNA): 4.12

The next lines start with results.

PDI ([1]; Table 1A) | Size (nm) [1, 3] [nm] | PDI [1, 4] | Size (nm) [1, 4] [nm] | PDI [1, 5] | Size (nm) [1, 5] [nm] | PDI [1, 9] | Size (nm) [1, 9] [nm] | PDI [1, 10] | Size (nm) [1, 10] [nm] | Compound | Fold increase in hEPO concentration relative to MC3 (hEPO mRNA) | Total Flux Liver (luciferase (Luc) mRNA; intravenous) | Total Flux Lung (luciferase (Luc) mRNA; intravenous) | Total Flux Spleen (luciferase (Luc) mRNA; intravenous) | % Lipid Remaining in liver, 48 h ([2]; rats, 48 h) [%] | Novel lipid/MC3 expression ratio, 6 hr. time point, i.m. hEPO (hEPO mRNA) | Novel lipid/MC3 expression ratio, 6 hr. time point, s.c. Luc 0.5 mpk (luciferase mRNA; relative to MC3) | Novel lipid/MC3 ratio, 6 hr. timepoint, i.m. hEPO (hEPO mRNA) | Novel lipid/MC3 expression ratio, s.c. Luc 0.5 mpk (AUC) (luciferase mRNA; relative to MC3) | Lipid/MC3 AUC ratio (luciferase mRNA) | other results
0.14 | 119 | 0.22 | 89.6 |  |  | 0.15 | 96.1 |  |  | CCCCCCCCCOC(=O)CCCCCCCN(CCCCCCCC(=O)OC(CCCCCCCC)CCCCCCCC)CCCNC(C)=O [Compound 108, Heptadecan-9-yl 8-((3-acetamidopropyl)(8-(nonyloxy)-8-oxooctyl)amino)octanoate] | 3.7 | 4.63E+08 | 9.81E+06 | 7.82E+08 |  |  | 0.22 |  |  |  | Flux in the spleen (luciferase (Luc) mRNA; i.v., in words): highest
0.21 | 91.5 | 0.24 | 73.3 |  |  |  |  | 0.21 | 91.5 | CCCCCCCCCOC(=O)CCCCCCCN(CCCCCCCC(=O)OC(CCCCCCCC)CCCCCCCC)CCCNC(=O)N(C)C [Compound 110, Heptadecan-9-yl 8-((3-(3,3-dimethylureido)propyl)(8-(nonyloxy)-8-oxooctyl)amino)octanoate] | 1.2 | 2.30E+08 | 5.76E+06 | 1.41E+08 |  |  |  | 1.2 | (AUC: 0.76) | 0.76 | AUC (luciferase expression) (luciferase mRNA): 1.2968E+10 (p/s) * h; Novel lipid/MC3 ratio, s.c. Luc 6 hr. (luciferase mRNA): 0.78
0.22 | 116.7 | 0.13 | 93.3 | 0.12 | 94.5 | 0.16 | 88.9 |  |  | CCCCCCCCCOC(=O)CCCCCCCN(CCCCCCCC(=O)OC(CCCCCCCC)CCCCCCCC)CCCNC(=S)N(C)C [Compound 111, Heptadecan-9-yl 8-((3-(3,3-dimethylthioureido)propyl)(8-(nonyloxy)-8-oxooctyl)amino)octanoate] | 10.6 | 4.83E+09 | 2.57E+07 | 2.44E+08 |  | 10.6 | 1.16 |  |  |  | 
